# From ChEMBL document CHEMBL4715889, “Novel amide and imidazole compounds as potent hematopoietic prostaglandin D synthase inhibitors” (Bioorg Med Chem Lett, 2021)
# Assays:
# [1] = biological target: T1, Hematopoietic prostaglandin D synthase (Homo sapiens, UniProt O60760); test: Inhibition of HPGDS (unknown origin) by fluorescence polarization assay
# [2] = biological target: T1, Hematopoietic prostaglandin D synthase; test: Binding affinity to HPGDS (unknown origin) assessed as change in melting temperature by thermal shift assay
# [3] = biological target: T1, Hematopoietic prostaglandin D synthase; test: Binding affinity to HPGDS (unknown origin) assessed as change in melting temperature in presence of GSH by thermal shift assay
# [4] = biological target: T1, Hematopoietic prostaglandin D synthase; test: Inhibition of HPGDS (unknown origin) assessed as reduction in reduction in GSTase activity relative to control; design: concentration or dose not given beside the values; settings: concentration not given here
# [5] = biological target: T1, Hematopoietic prostaglandin D synthase; test: Inhibition of HPGDS (unknown origin) assessed as reduction in reduction in LPS-induced PGD2 level by ELISA
# [6] = Aqueous solubility of compound at pH 7.4; format: physicochemical
# [7] = biological target: T1, Hematopoietic prostaglandin D synthase; test: Competitive inhibition of human HPGDS using PGH2 as substrate
# [8] = Half life in human liver microsomes; format: ADME, Microsome
# T1 sequence (O60760 whole entry): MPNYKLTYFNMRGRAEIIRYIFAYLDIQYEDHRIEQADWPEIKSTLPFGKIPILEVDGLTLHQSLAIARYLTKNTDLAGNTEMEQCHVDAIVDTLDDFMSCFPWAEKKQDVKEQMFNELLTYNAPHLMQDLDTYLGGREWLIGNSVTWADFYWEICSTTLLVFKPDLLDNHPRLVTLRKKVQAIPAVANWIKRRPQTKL
IC50 [1],ΔTm [2],ΔTm [3],inhibition [4],IC50 [5],solubility [6],Ki [7],half-life [8],Compound
31.6 nM,3.2 °C,4.4 °C,85.2%,40.5 nM,–,–,–,c1ccc(-c2ccc(-c3cnc(-c4ccccc4)[nH]3)cn2)cc1
1770 nM,0.2 °C,0.6 °C,18.2%,5060 nM,–,–,–,c1ccc(-c2ncc(-c3cnc(-c4ccccn4)nc3)[nH]2)cc1
11.7 nM,0.4 °C,4.6 °C,82.5%,23.9 nM,–,–,–,O=C(NCc1ccccc1)c1cnc(-c2ccccc2)nc1
257 nM,2.1 °C,2.2 °C,29.5%,> 5000 nM,–,–,–,c1ccc(-c2ncc(-c3cnc(-c4cccnc4)s3)cn2)cc1
7.14 nM,0.2 °C,4.2 °C,71.3%,35.7 nM,–,–,–,O=C(NCc1ccccc1)c1cnc(-c2ccccn2)nc1
27.7 nM,0.2 °C,3.3 °C,62.4%,808 nM,–,–,–,CC(C)(O)c1nc(-c2cccc(CNC(=O)c3ccc(-c4ccccc4)nc3)c2)no1
63.1 nM,3.1 °C,3.4 °C,38.4%,723 nM,–,–,–,Cn1c(-c2cnc(-c3ccccc3)nc2)cnc1-c1ccccc1
122 nM,0.3 °C,3 °C,40.4%,1230 nM,–,–,–,O=C(NCc1ccccc1)c1ccc(-c2ccccc2)nc1
3200 nM,0.4 °C,0.6 °C,25.5%,–,17.5 µM,–,–,CC(C)(O)c1nc(-c2cccc(-c3ncc(-c4cnc(-c5ccccn5)nc4)[nH]3)c2)no1
78.6 nM,4.8 °C,5.4 °C,76.1%,23.4 nM,–,–,–,CC(C)(O)c1nc(-c2cccc(-c3ncc(-c4ccc(-c5ccccn5)nc4)[nH]3)c2)no1
13.2 nM,4.9 °C,5.7 °C,65.1%,12.5 nM,–,–,–,c1ccc(-c2ncc(-c3cnc(-c4cccnc4)[nH]3)cn2)cc1
80.7 nM,0.1 °C,2.8 °C,19.2%,453 nM,–,–,–,O=C(NCc1ccccc1)c1ccc(-c2ccccn2)nc1
37.2 nM,4.2 °C,5.2 °C,73.5%,44.5 nM,–,–,–,c1ccc(-c2ncc(-c3ccc(-c4ccccn4)nc3)[nH]2)cc1
8.88 nM,3.6 °C,3.8 °C,94.5%,59 nM,–,–,–,c1ccc(-c2ncc(-c3cnc(-c4ccccc4)[nH]3)cn2)cc1
7.48 nM,0.5 °C,5.1 °C,90.9%,11.6 nM,–,–,–,CC(C)(O)c1nc(-c2cccc(CNC(=O)c3cnc(-c4ccccn4)nc3)c2)no1
55.5 nM,0.1 °C,2.8 °C,47.2%,328 nM,–,–,–,CC(C)(O)c1nc(-c2cccc(CNC(=O)c3ccc(-c4ccccn4)nc3)c2)no1
35.4 nM,4.3 °C,5.2 °C,83.5%,72 nM,–,–,–,CC(C)(O)c1nc(-c2cccc(-c3ncc(-c4ccc(-c5ccccc5)nc4)[nH]3)c2)no1
7.18 nM,0.4 °C,4.95 °C,83.9%,9.86 nM,–,–,–,CC(C)(O)c1nc(-c2cccc(CNC(=O)c3cnc(-c4ccccc4)nc3)c2)no1
–,–,–,–,–,–,5000 nM,–,c1ccc(C(OC2CCN(CCCc3nnn[nH]3)CC2)c2ccccc2)cc1
30.8 nM,4.3 °C,4.5 °C,81.5%,3740 nM,–,–,–,Cc1nc(-c2ccccc2)[nH]c1-c1cnc(-c2ccccc2)nc1
5.88 nM,6.9 °C,7.1 °C,92.1%,20.7 nM,3.3 µM,–,> 1 h,CC(C)(O)c1nc(-c2cccc(-c3ncc(-c4cnc(-c5ccccc5)nc4)[nH]3)c2)no1
